{
  "source": "patent US7803830B2",
  "about": "“3-amino-1-arylpropyl indoles and AZA-substituted indoles and uses thereof” (Roche Palo Alto LLC, priority 2005, dated 2010)",
  "note": "Where a name gives a salt, the structure may show the parent alone.",
  "data": [
    {"units": {"melting point": "°C"}, "values": [
      {"compound": "NCCC(c1ccc2ncccc2c1)c1ccc2[nH]ccc2c1", "note": "(stereo not shown) [compound 120, 3-(1H-Indol-5-yl)-3-quinolin-6-yl-propylamine]", "melting point": "60.9 to 62.9"},
      {"compound": "CNCCC(c1ccccc1)c1cccc2[nH]ncc12", "note": "(stereo not shown) (as salt: HCl) [compound 49, [3-(1H-Indazol-4-yl)-3-phenyl-propyl]-methyl-amine]", "melting point": "130.6 to 133.1"},
      {"compound": "CNCC[C@@H](c1ccccc1)c1cccc2cn[nH]c12", "note": "(as salt: TFA) [compound 56, [(S)-3-(1H-Indazol-7-yl)-3-phenyl-propyl]-methyl-amine]", "melting point": "62 to 68.1"},
      {"compound": "CNCCC(c1ccccc1)c1ccc2[nH]nc(C)c2c1", "note": "(stereo not shown) (as salt: TFA) [compound 58, Methyl-[3-(3-methyl-1H-indazol-5-yl)-3-phenyl-propyl]-amine]", "melting point": "64.5 to 66"},
      {"compound": "CNCCC(c1ccc2cc[nH]c2c1)c1ccccn1", "note": "(stereo not shown) (as salt: HCl) (hydrate or solvate) [compound 21]", "melting point": "> 300"},
      {"compound": "CNCCC(c1ccc2[nH]ccc2c1)c1ccc2nccnc2c1", "note": "(stereo not shown) [compound 123, [3-(1H-lndol-5-yl)-3-quinoxalin-6-yl-propyl]-methyl-amine]", "melting point": "60.3 to 62"},
      {"compound": "CNCC[C@H](c1ccccc1)c1cccc2cn[nH]c12", "note": "(as salt: TFA) [compound 55, [(R)-3-(1H-Indazol-7-yl)-3-phenyl-propyl]-methyl-amine]", "melting point": "61.9 to 65.7"},
      {"compound": "CNCCC(c1ccc2[nH]ccc2c1)c1ccc2[nH]ccc2c1", "note": "[compound 111, [3,3-Bis-(1H-indol-5-yl)-propyl]-methyl-amine]", "melting point": "142 to 152"},
      {"compound": "CNCCC(c1cccc(Cl)c1)c1ccc2cc[nH]c2c1", "note": "(stereo not shown) (as salt: HCl) [compound 36, [3-(3-Chloro-phenyl)-3-(1H-indol-6-yl)-propyl]-methyl-amine]", "melting point": "62 to 63"},
      {"compound": "CNCCC(c1cnc2ccccc2c1)c1ccc2[nH]ccc2c1", "note": "(stereo not shown) [compound 137, [3-(1H-Indol-5-yl)-3-quinolin-3-yl-propyl]-methyl-amine]", "melting point": "56 to 58"}
    ]}
  ]
}
